Laboratory results from patent US6204293A, “Inhibitors of protein isoprenyl transferases” (University of Pittsburgh, priority 1998, dated 2001).
Counter-ions that a name gives are not always drawn.

Target: T1, Rat brain protein farnesyltransferase (Rattus norvegicus, UniProt Q02293+Q04631)
T1 construct: Rat brain protein farnesyltransferase activity is measured; from tissue; host or cells: rat brain
Experiment: % inhibition of farnesylation, scintillation proximity assay with biotin-K Ras B fragment
Assay type: biochemical
Settings: Table 1; 1 × 10^-5 M
From the text: The ability of the compounds of the invention to inhibit protein farnesyltransferase or protein geranylgeranyltransferase can be measured according to the method of Moores, et al., J. Biol. Chem. 266: 14603 (1991) or the method of Vogt, et al., J. Biol. Chem. 270:660-664 (1995). In addition, procedures for determination of the inhibition of farnesylation of the oncogene protein Ras are described by Goldstein, et al., J. Biol. Chem., 266:15575-15578 (1991) and by Singh in U.S. Pat. No. 5,245,061.
In addition, in vitro inhibition of protein farnesyltransferase may be measured by the following procedure. Rat brain protein farnesyltransferase activity is measured using an Amersham Life Science commercial scintillation proximity assay kit and substituting a biotin-K Ras B fragment (biotin-[…]CO2 H), 0.1 mM final concentration, for the biotin-lamin substrate provided by Amersham. The enzyme is purified according to Reiss, Y., et al., Cell, 62: 81-88 (1990), utilizing steps one through three.
The % inhibition of protein farnesyltransferase was determined for representative compounds of the invention.

T1 sequence (Q02293 whole entry, one chain of several): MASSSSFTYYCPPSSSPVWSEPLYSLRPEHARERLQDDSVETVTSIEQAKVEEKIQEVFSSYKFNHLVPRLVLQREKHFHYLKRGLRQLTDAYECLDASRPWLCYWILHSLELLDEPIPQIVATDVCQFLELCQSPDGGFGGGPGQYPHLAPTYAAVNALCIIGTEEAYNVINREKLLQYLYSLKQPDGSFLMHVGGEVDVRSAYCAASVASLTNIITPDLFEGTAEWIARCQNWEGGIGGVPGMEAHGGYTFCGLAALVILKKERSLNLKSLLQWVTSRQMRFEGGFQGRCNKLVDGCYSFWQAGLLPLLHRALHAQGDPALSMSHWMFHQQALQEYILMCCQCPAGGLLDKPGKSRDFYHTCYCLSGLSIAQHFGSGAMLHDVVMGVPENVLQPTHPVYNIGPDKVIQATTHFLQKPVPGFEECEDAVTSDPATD

Compared with `CSCC[C@H](NC(=O)c1ccc(CNCCN2CCOCC2)cc1-c1ccccc1)C(=O)O` [Example 365], `CSCC[C@H](NC(=O)c1ccc(CNc2cc(C)on2)cc1-c1ccccc1)C(=O)O` [Example 372] is lower in “% inhibition at 1 × 10^-5 M” value: 97% for the first, 69% for the second.

First: CSCC[C@H](NC(=O)c1ccc(CNc2ccc(C)c(C)c2)cc1-c1ccccc1)C(=O)O [Example 704]
Second: CSCC[C@H](NC(=O)c1ccc(CNc2cccc(N(C)C)c2)cc1-c1ccccc1)C(=O)O [Example 683]
The “% inhibition at 1 × 10^-5 M” value of the first is higher: 67% for the first, 57% for the second.

`CSCC[C@H](NC(=O)c1ccc(CNc2cccc(CO)c2)cc1-c1ccccc1)C(=O)O` [Example 680] was tested, and the “% inhibition at 1 × 10^-5 M” value was 58%.

Same assay, conditions: Table 2; 1 × 10^-6 M

First: CSCC[C@H](NC(=O)c1ccc(NCC(CO)(Cc2ccccc2)Cc2ccccc2)cc1-c1ccccc1C)C(=O)O [Example 475]
Second: CSCC[C@H](NC(=O)c1ccc(CN(Cc2ccccc2)c2ccccc2C(C)=O)cc1-c1ccccc1C)C(=O)O [Example 844]
The “% inhibition at 1 × 10^-6 M” value of the first is lower: 21% for the first, 92% for the second.

Going from `CSCC[C@H](NC(=O)c1ccc(CN(CCc2ccccc2)C(C)C)cc1-c1ccccc1C)C(=O)O` [Example 835] to `CSCC[C@H](NC(=O)c1ccc(C=CCc2ccccc2)cc1-c1ccccc1C)C(=O)O` [Example 469], the “% inhibition at 1 × 10^-6 M” value falls from 96% to 92%.

First: CSCC[C@H](NC(=O)c1ccc(CNc2ccc(C(O)(C(F)(F)F)C(F)(F)F)cc2)cc1-c1ccccc1)C(=O)O [Example 693]
Second: CSCC[C@H](NC(=O)c1ccc(CNc2ccccc2CCO)cc1-c1ccccc1)C(=O)O [Example 671]
The “% inhibition at 1 × 10^-6 M” value of the first is higher: 53% for the first, 36% for the second.

First: CSCC[C@H](NC(=O)c1ccc(NC(=O)OCc2cncs2)cc1-c1ccccc1C)C(=O)O [Example 902]
Second: CSCC[C@H](NC(=O)c1ccc(/C=C/c2cncnc2)cc1-c1ccccc1C)C(=O)O [Example 494]
The “% inhibition at 1 × 10^-6 M” value of the first is lower: 85% for the first, 96% for the second.

First: CSCC[C@H](NC(=O)c1ccc(CNCCN2CCCC2)cc1-c1ccccc1)C(=O)O [Example 641]
Second: CSCC[C@H](NC(=O)c1ccc(CNCC(O)CO)cc1-c1ccccc1)C(=O)O (stereo partly drawn) [Example 632]
The “% inhibition at 1 × 10^-6 M” value of the first is lower: 34% for the first, 43% for the second.

Going from `Cc1ccccc1-c1cc(CN(C2CC2)C2(CC3CCCCC3)CCC2)ccc1C(=O)N[C@@H](CCS(C)(=O)=O)C(=O)O` [Example 334] to `CSCC[C@H](NC(=O)c1ccc(CN(C(C)C)C2(CC3CCCCC3)CC2)cc1-c1ccccc1C)C(=O)O` [Example 326], the “% inhibition at 1 × 10^-6 M” value falls from 93% to 91%.

For `CSCC[C@H](NC(=O)c1ccc(CN2CCCC(OCc3ccccc3)C2)cc1-c1ccccc1C)C(=O)O` (stereo partly drawn) [Example 989], the “% inhibition at 1 × 10^-6 M” value was 88%.

Same assay, conditions: Table 3; 1 × 10^-7 M

Going from `CSCC[C@H](NC(=O)c1ccc(CCc2ccc(Oc3ccccc3)nn2)cc1-c1ccccc1C)C(=O)O` [Example 811] to `CSCC[C@H](NC(=O)c1ccc(CN2CCC[C@@H]2COCc2ccccc2)cc1-c1ccccc1C)C(=O)O` [Example 993], the “% inhibition at 1 × 10^-7 M” value rises from 85% to 90%.

With `CCCCN(CCCC)C(=O)CN(C)Cc1ccc(C(=O)N[C@@H](CCSC)C(=O)O)c(-c2ccccc2C)c1` [Example 913] the “% inhibition at 1 × 10^-7 M” value was 89%.

Same assay, conditions: Table 4; 1 × 10^-8 M

For `CC[C@H](CC1CCCCC1)NCc1ccc(C(=O)N[C@@H](CCSC)C(=O)O)c(-c2ccccc2C)c1` [Example 614], the “% inhibition at 1 × 10^-8 M” value was 92%.

Same assay, conditions: read-out: % inhibition at 0.01 μM (**); Table 6; ** footnote 0.01 μM (title: 0.01 mM)

Compared with `CSCC[C@H](NC(=O)c1ccc(CO[C@@H](CC2CCCCC2)C(=O)N2CCSCC2)cc1-c1ccccc1C)C(=O)O` [Example 1054, N-[4-(3-cyclohexyl-N-thiomorpholin-4-ylpropion-2-yloxymethyl)-2-(2-methylphenyl)benzoyl]methionine, lithium salt], `CSCC[C@H](NC(=O)c1ccc(CO[C@@H](CC2CCCCC2)C(=O)N2CCS(=O)(=O)CC2)cc1-c1ccccc1C)C(=O)O` [Example 1348, N-[4-(3-cyclohexyl-N-thiomorpholin-S,S-dioxide-4-ylpropion-2-yloxymethyl)-2-(2-methylphenyl)benzoyl]methionine, Lithium Salt] is lower in inhibition at 0.01 µM: 89% for the first, 78% for the second.

Work on `CCCC[C@H](CC1CCCCC1)OCc1ccc(C(=O)N[C@@H](CCSC)C(=O)O)c(-c2ccccc2C)c1` [Example 1303, N-[4-(1-Cyclohexyl-2-hexyloxymethyl)-2-(2-methylphenyl)benzoyl]methionine Lithium Salt] yielded an inhibition at 0.01 µM of 91%.

Same assay, conditions: read-out: % inhibition at 1 × 10^-6 M

Molecule `CSCC[C@H](NC(=O)c1ccc(OCCC2CCCCC2)cc1-c1ccccc1C)C(=O)O` [Example 552, N-[4-(2-cyclohexylethoxy)-2-(2-methylphenyl)benzoyl]methionine, lithium salt] has an inhibition at 1 µM of 88%.

Same assay, conditions: read-out: % inhibition at 1 × 10^-6 M; Table 2; 1 × 10^-6 M

Going from `CSCC[C@H](NC(=O)c1ccc(CSc2nc(O)cc(Cc3ccccc3)n2)cc1-c1ccccc1C)C(=O)O` [Example 744] to `CSCC[C@H](NC(=O)c1cc(Cc2ccccc2)c(COCCCc2ccccc2)cc1-c1ccccc1C)C(=O)O` [Example 925], the inhibition at 1 µM rises from 84% to 87%.

Same assay, conditions: read-out: % inhibition at 1 × 10^-7 M

`CSCC[C@H](NC(=O)c1ccc(COCc2ccc(-c3cccc([N+](=O)[O-])c3)o2)cc1-c1ccccc1C)C(=O)O` [Example 440, N-[4-(5-(3-nitrophenyl)furan-2-ylmethoxymethyl)-2-(2-methylphenyl)benzoyl]methionine lithium salt] gave an inhibition at 0.1 µM of 92%.

Same assay, conditions: read-out: % inhibition at 1 × 10^-7 M; Table 3; 1 × 10^-7 M

First: COc1ncc(COCc2ccc(C(=O)N[C@@H](CCSC)C(=O)O)c(-c3ccccc3C)c2)s1 [Example 896, N-[4-(2-methoxythiazol-5-ylmethoxymethyl)-2-(2-methylphenylbenzoyl]methioninelithium salt]
Second: C=C(C)C1CC=C(COCc2ccc(C(=O)N[C@@H](CCSC)C(=O)O)c(-c3ccccc3C)c2)CC1 (stereo partly drawn) [Example 521, N-[4-(4-isoprop-2-enylcyclohexen-1-yl)methoxymethyl-2-(2-methylphenyl)benzoyl]methionine lithium salt]
The inhibition at 0.1 µM of the first is higher: 96% for the first, 94% for the second.

Same assay, conditions: read-out: % inhibition at 1 × 10^-8 M

First: CSCC[C@H](NC(=O)c1ccc(COCc2cccc(Cl)c2)cc1-c1ccccc1C)C(=O)O [Example 934, N-[4-(3-chlorobenzyloxymethyl)-2-(2-methylphenyl)benzoyl]methionine lithium salt]
Second: COc1cccc(COCc2ccc(C(=O)N[C@@H](CCSC)C(=O)O)c(-c3ccccc3C)c2)c1 [Example 932, N-[4-(3-methoxybenzyloxymethyl)-2-(2-methylphenyl)benzoyl]methionine lithium salt]
The inhibition at 0.01 µM of the first is higher: 71% for the first, 60% for the second.

Compared with `CSCC[C@H](NC(=O)c1ccc(COCCc2ccccc2Cl)cc1-c1ccccc1C)C(=O)O` [Example 588, N-[4-(2-(2-chlorophenyl)ethoxymethyl)-2-(2-methylphenyl)benzoyl]methionine lithium salt], `CCCCC(CCCC)OCc1ccc(C(=O)N[C@@H](CCSC)C(=O)O)c(-c2ccccc2C)c1` [Example 942, N-[4-(nonan-5-yloxymethyl)-2-(2-methylphenyl)benzoyl]methionine lithium salt] is lower in inhibition at 0.01 µM: 68% for the first, 58% for the second.

Same assay, conditions: read-out: % inhibition at 1 × 10^-8 M; Table 4; 1 × 10^-8 M

Molecule `CSCC[C@H](NC(=O)c1ccc(CO[C@@H](CC2CCCCC2)CN2CCOCC2)cc1-c1ccccc1C)C(=O)O` [Example 885, N-[4-(3-Cyclohexyl-1-morpholin-4-ylpropan-2-yl)oxymethyl-2-(2-methylphenyl)benzoyl]methionine trifluoroacetate salt] has an inhibition at 0.01 µM of 95%.
